US20250011288A1 (BRISTOL-MYERS SQUIBB COMPANY, priority 2021, published 2025)

Each molecule was assayed against T1, human RXFP1 (Homo sapiens, UniProt Q9HBX9) (assay: human RXFP1 (hRXFP1) HEK293 cAMP assay (HTRF)). Conditions: HEK293 cells stably expressing human RXFP1, 30 min at room temperature.
T1 construct: expressed in transfected cells
T1 sequence (Q9HBX9 1-757): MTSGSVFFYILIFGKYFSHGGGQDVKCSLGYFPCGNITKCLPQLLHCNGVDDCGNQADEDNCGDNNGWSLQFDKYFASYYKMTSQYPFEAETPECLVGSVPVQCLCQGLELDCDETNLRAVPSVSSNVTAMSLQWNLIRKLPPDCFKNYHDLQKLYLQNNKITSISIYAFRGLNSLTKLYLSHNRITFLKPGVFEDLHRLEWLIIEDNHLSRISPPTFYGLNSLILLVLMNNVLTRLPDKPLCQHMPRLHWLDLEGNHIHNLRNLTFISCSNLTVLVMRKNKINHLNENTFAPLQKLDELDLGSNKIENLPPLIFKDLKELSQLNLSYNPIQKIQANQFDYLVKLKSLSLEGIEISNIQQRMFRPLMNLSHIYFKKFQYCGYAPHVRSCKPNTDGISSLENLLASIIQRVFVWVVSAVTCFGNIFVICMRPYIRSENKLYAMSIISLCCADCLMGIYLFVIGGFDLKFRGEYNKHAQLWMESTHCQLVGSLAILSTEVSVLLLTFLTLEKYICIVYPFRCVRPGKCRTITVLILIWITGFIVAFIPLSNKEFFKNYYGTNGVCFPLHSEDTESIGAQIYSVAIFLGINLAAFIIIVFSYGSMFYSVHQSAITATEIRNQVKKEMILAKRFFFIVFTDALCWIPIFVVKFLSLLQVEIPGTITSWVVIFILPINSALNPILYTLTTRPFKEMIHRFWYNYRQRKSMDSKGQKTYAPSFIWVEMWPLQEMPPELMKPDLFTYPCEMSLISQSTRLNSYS
Format: cell-based
Procedure: RXFP1 Cyclic Adenosine Monophosphate (cAMP) Assays. […] Cells were dissociated and suspended in assay buffer. The assay buffer was HBSS buffer (with calcium and magnesium) containing 20 mM HEPES, 0.05% BSA, and 0.5 mM IBMX. Cells (3000 cells per well, except 1500 cell per well for HEK293 cells stably expressing human RXFP1) were added to 384-well Proxiplates (Perkin-Elmer). Cells were immediately treated with test compounds in DMSO (2% final) at final concentrations in the range of 0.010 nM to 50 µM. Cells were incubated for 30 min at room temperature. The level of intracellular cAMP was determined using the HTRF HiRange cAMP assay reagent kit (Cisbio) according to manufacturer's instructions. Solutions of cryptate conjugated anti-cAMP and d2 fluorophore-labelled cAMP were made in a supplied lysis buffer separately. Upon completion of the reaction, the cells were lysed with equal volume of the d2-cAMP solution and anti-cAMP solution. […] The potency and activity of a compound to […] cAMP production was then determined by fitting to a 4-parametric logistic equation from a plot of cAMP level versus compound concentrations.

SMILES	EC50
COc1ncc(C#CCO)cc1C(=O)N[C@@H]1C2CCC(/C2=C/C(F)(F)F)[C@@H]1C(=O)Nc1ccc(F)c(C(F)(F)F)c1 (stereo partly drawn) [Example 49, N-[(2R,3S,7Z)-3-{[4-fluoro-3-(trifluoromethyl)phenyl]carbamoyl}-7-(2,2,2-trifluoroethylidene)bicyclo[2.2.1]heptan-2-yl]-5-(3-hydroxyprop-1-yn-1-yl)-2-methoxypyridine-3-carboxamide]	0.153 µM
COc1cc2c(cc1C(=O)N[C@H]1[C@@H](C(=O)Nc3ccc(F)c(C(F)(F)F)c3)[C@H]3CC[C@@H]1/C3=C\C1CC1)CN(CC(C)(C)O)CC2 [Example 85, N-((1R,2R,3S,4R,Z)-7-(cyclopropylmethylene)-3-((4-fluoro-3-(trifluoromethyl)phenyl)carbamoyl)bicyclo[2.2.1]heptan-2-yl)-2-(2-hydroxy-2-methylpropyl)-6-methoxy-1,2,3,4-tetrahydroisoquinoline-7-carboxamide]	0.2 µM
COc1ncc(-c2cc(C(=O)O)ccc2F)cc1C(=O)N[C@@H]1C2CCC(C2=C(C)C)[C@@H]1C(=O)Nc1ccc(F)c(C(F)(F)F)c1 (stereo partly drawn) [Example 21, 4-fluoro-3-(5-{[(2R,3S)-3-{[4-fluoro-3-(trifluoromethyl)phenyl]carbamoyl}-7-(propan-2-ylidene)bicyclo[2.2.1]heptan-2-yl]carbamoyl}-6-methoxypyridin-3-yl)benzoic acid]	0.08 µM
COc1ccc(-c2cc(C(=O)O)ccc2F)nc1C(=O)N[C@@H]1C2CCC(C2=C(C)C)[C@@H]1C(=O)Nc1ccc(F)c(C(F)(F)F)c1 (stereo partly drawn) [Example 23, 4-Fluoro-3-(6-{[(2R,3S)-3-{[4-fluoro-3-(trifluoromethyl)phenyl]carbamoyl}-7-(propan-2-ylidene)bicyclo [2.2.1]heptan-2-yl]carbamoyl}-5-methoxypyridin-2-yl)benzoic acid]	2.4 µM
COc1cc2c(cc1C(=O)N[C@H]1[C@@H](C(=O)Nc3ccc(F)c(C(F)(F)F)c3)[C@H]3CC[C@@H]1/C3=C\C1CC1)CN(S(=O)(=O)CC(C)C)CC2 [Example 88, N-((1R,2R,3S,4R,Z)-7-(cyclopropylmethylene)-3-((4-fluoro-3-(trifluoromethyl)phenyl)carbamoyl)bicyclo[2.2.1]heptan-2-yl)-2-(isobutylsulfonyl)-6-methoxy-1,2,3,4-tetrahydroisoquinoline-7-carboxamide]	0.11 µM
O=C(N[C@@H]1C2CCC(/C2=C/C(F)(F)F)[C@@H]1C(=O)Nc1ccc(F)c(C(F)(F)F)c1)c1cc(Br)cnc1OCCO (stereo partly drawn) [Example 41, 5-bromo-N-[(2R,3S,7Z)-3-{[4-fluoro-3-(trifluoromethyl)phenyl]carbamoyl}-7-(2,2,2-trifluoroethylidene)bicyclo[2.2.1]heptan-2-yl]-2-(2-hydroxyethoxy) pyridine-3-carboxamide]	0.77 µM
COc1cc2c(cc1C(=O)N[C@H]1[C@@H](C(=O)Nc3ccc(F)c(C(F)(F)F)c3)[C@H]3CC[C@@H]1/C3=C\C1CC1)CN(C(=O)OC(C)(C)C)CC2 [Example 82, tert-butyl 7-(((1R,2R,3S,4R,Z)-7-(cyclopropylmethylene)-3-((4-fluoro-3-(trifluoromethyl)phenyl)carbamoyl)bicyclo[2.2.1]heptan-2-yl)carbamoyl)-6-methoxy-3,4-dihydroisoquinoline-2(1H)-carboxylate]	0.66 µM
O=C(N[C@@H]1C2CCC(/C2=C/C(F)(F)F)[C@@H]1C(=O)Nc1ccc(F)c(C(F)(F)F)c1)c1cnc2ccc(Cl)cc2c1 (stereo partly drawn) [Example 17, 6-chloro-N-[(2R,3S,7Z)-3-{[4-fluoro-3-(trifluoromethyl)phenyl]carbamoyl}-7-(2,2,2-trifluoroethylidene)bicyclo[2.2.1]heptan-2-yl]quinoline-3-carboxamide]	4.5 µM
O=C(NC1CCC1)O[C@@H](c1ccc(F)c(-c2cc(C(=O)N[C@@H]3C4CCC(/C4=C/C(F)(F)F)[C@@H]3C(=O)Nc3ccc(F)c(C(F)(F)F)c3)c(OCCO)cn2)c1)C(F)(F)F (stereo partly drawn) [Example 46, (1S)-2,2,2-trifluoro-1-[4-fluoro-3-(4-{[(2R,3S,7Z)-3-{[4-fluoro-3-(trifluoromethyl)phenyl]carbamoyl}-7-(2,2,2-trifluoroethylidene)bicyclo[2. 2.1]heptan-2-yl]carbamoyl}-5-(2-hydroxyethoxy)pyridin-2-yl)phenyl]ethyl N-cyclobutyl-carbamate]	0.065 µM

The next lines start with the values.

EC50	SMILES
0.0033 µM	COc1ncc(C2=NOC3CC(C)(CO)CC23)cc1C(=O)N[C@H]1[C@@H](C(=O)N[C@H](C)C2(C)CC2)[C@H]2CC[C@@H]1/C2=C\C1CC1 (stereo partly drawn) [Example 177, N-[(1R,2R,3S,4R, 7Z)-7-(cyclopropyl-methylidene)-3-{[(1R)-1-(1-methylcyclo-propyl)ethyl]carbamoyl}bicyclo[2.2.1]heptan-2-yl]-5-[5-(hydroxymethyl)-5-methyl-3aH,4H,5H,6H, 6aH-cyclopenta[d][1,2]oxazol-3-yl]-2-methoxypyridine-3-carboxamide]
2.4 µM	O=C(N[C@@H]1C2CCC(/C2=C/C2CC2)[C@@H]1C(=O)Nc1ccc(F)c(C(F)(F)F)c1)c1cncc(C2=NOC3COCC23)c1 (single isomer, unassigned) [Example 62]
0.0042 µM	COc1ncc(C2=NOC3CC(O)CC23)cc1C(=O)N[C@H]1[C@@H](C(=O)Nc2ccc(F)c(C(F)(F)F)c2)[C@H]2CC[C@@H]1/C2=C\C1CCCC1 (stereo partly drawn) [Example 126, N-((1R,2R,3S,4R,Z)-7-(cyclopentylmethylene)-3-((4-fluoro-3-(trifluoromethyl)phenyl)carbamoyl)bicyclo[2.2.1]heptan-2-yl)-5-(5-hydroxy-3a,5,6,6a-tetrahydro-4H-cyclopenta[d]isoxazol-3-yl)-2-methoxynicotinamide]
0.0061 µM	COc1ncc(C2=NOC3CC(C(C)O)CC23)cc1C(=O)N[C@H]1[C@@H](C(=O)N[C@H](C)C2(C)CC2)[C@H]2CC[C@@H]1/C2=C\C1CC1 (stereo partly drawn) [Example 159, N-[(1R,2R,3S,4R, 7Z)-7-(cyclopropyl-methylidene)-3-{[(1R)-1-(1-methylcyclopropyl)ethyl]carbamoyl}bicyclo[2.2.1]heptan-2-yl]-5-[5-(1-hydroxyethyl)-3aH,4H,5H,6H, 6aH-cyclopenta[d][1,2]oxazol-3-yl]-2-methoxypyridine-3-carboxamide]
0.0021 µM	COc1ncc(C2=NO[C@@H]3C[C@H](CO)CN23)cc1C(=O)N[C@@H]1C2CCC(/C2=C/C2CCCC2)[C@@H]1C(=O)Nc1ccc(F)c(C(F)(F)F)c1 (stereo partly drawn) [Example 133, N-((1R,2R,3S,4R,Z)-7-(cyclopentyl-methylene)-3-((4-fluoro-3-(trifluoromethyl)phenyl)carbamoyl)bicyclo[2.2.1]heptan-2-yl)-5-((6S,7aR)-6-(hydroxymethyl)-5,6,7,7a-tetrahydropyrrolo [1,2-d][1,2,4]oxadiazo 1-3-yl)-2-methoxynicotinamide]
0.0034 µM	COc1ncc(C2=NOC3COCC23)cc1C(=O)N[C@H]1[C@@H](C(=O)N[C@H](C)C2(C)CC2)[C@H]2CC[C@@H]1/C2=C\c1csc(C(F)F)n1 (stereo partly drawn) [Example 100, N-((1R,2R,3S,4R,Z)-7-((2-(difluoromethyl)thiazol-4-yl)methylene)-3-(((R)-1-(1-methylcyclopropyl)ethyl)carbamoyl)bicyclo[2.2.1]heptan-2-yl)-2-methoxy-5-(3a,4,6,6a-tetrahydrofuro[3,4-d]isoxazol-3-yl)nicotinamide]
0.0034 µM	COc1ncc(C2=NOC3CC(CO)CC23)cc1C(=O)N[C@@H]1C2CCC(/C2=C/C2CC2)[C@@H]1C(=O)N[C@H](C)C1(C(F)(F)F)CC1 (stereo partly shown) [Example 141]
